Reference: patent US8334315B2, “Substituted aromatic carboxamide and urea derivatives as vanilloid receptor ligands” (Gruenenthal GmbH, priority 2009, dated 2012)

Columns and labels:
[1] = target: T1, rat-species vanilloid receptor 1 (VR1/TRPV1) (Rattus norvegicus, UniProt O35433); assay: Functional testing on the vanilloid receptor 1, FLIPR Ca2+ influx in rat DRG cells, capsaicin; type: cell-based; parameters: key to Ki (rat) [nM] Cap: agonist / partial agonist / no effect: AG=agonist; pAG=partial agonist; NE=no effect; settings: for Ki: capsaicin (Cap), includes values given in brackets after pAG
T1 construct: endogenous in cells; host or cells: primary cells dissociated from rat dorsal root ganglia (DRG), cultured 2-3 days with NGF
From the text: I. Functional Testing Carried Out on the Vanilloid Receptor 1 (VRI/TRPV1 Receptor)
(§1) The agonistic or antagonistic effect of the substances to be tested on the rat-species vanilloid receptor 1 (VR1/TRPV1) can be determined using the following assay. In this assay, the influx of Ca^2+ through the receptor channel is quantified with the aid of a Ca^2+-sensitive dye (type Fluo-4, Molecular Probes Europe BV, Leiden, the Netherlands) in a fluorescent imaging plate reader (FLIPR, Molecular Devices, Sunnyvale, USA).
Complete medium: 50 ml HAMS F12 nutrient mixture (Gibco Invitrogen GmbH, Karlsruhe, Germany) with
10% by volume of FCS (foetal calf serum, Gibco Invitrogen GmbH, Karlsruhe, Germany, heat-inactivated);
2 mM L-glutamine (Sigma, Munich, Germany);
1% by weight of AA solution (antibiotic/antimyotic solution, PAA, Pasching, Austria) and 25 ng/ml NGF medium (2.5 S, Gibco Invitrogen GmbH, Karlsruhe, Germany)
Cell culture plate: Poly-D-lysine-coated, black 96-well plates having a clear base (96-well black/clear plate, BD Biosciences, Heidelberg, Germany) are additionally coated with laminin (Gibco Invitrogen GmbH, Karlsruhe, Germany), the laminin being diluted with PBS (Ca—Mg-free PBS, Gibco Invitrogen GmbH, Karlsruhe, Germany) to a concentration of 100 μg/ml. Aliquots having a laminin concentration of 100 μg/ml are removed and stored at −20° C. The aliquots are diluted with PBS in a ratio of 1:10 to 10 μg/ml of laminin and respectively 50 μL of the solution are pipetted into a recess in the cell culture plate. The cell culture plates are incubated for at least two hours at 37° C., the excess solution is removed by suction and the recesses are each washed twice with PBS. The coated cell culture plates are stored with excess PBS which is not removed until just before the feeding of the cells.
Preparation of the Cells:
The vertebral column is removed from decapitated rats and placed immediately into cold HBSS buffer (Hank's buffered saline solution, Gibco Invitrogen GmbH, Karlsruhe, Germany), i.e. buffer located in an ice bath, mixed with 1% by volume (per cent by volume) of an AA solution (antibiotic/antimyotic solution, PAA, Pasching, Austria). The vertebral column is cut longitudinally and removed together with fasciae from the vertebral canal. Subsequently, the dorsal root ganglia (DRG) are removed and again stored in cold HBSS buffer mixed with 1% by volume of an AA solution. The DRG, from which all blood remnants and spinal nerves have been removed, are transferred in each case to 500 μL of cold type 2 collagenase (PAA, Pasching, Austria) and incubated for 35 minutes at 37° C. After the addition of 2.5% by volume of trypsin (PAA, Pasching, Austria), incubation is continued for 10 minutes at 37° C. After complete incubation, the enzyme solution is carefully pipetted off and 500 μL of complete medium are added to each of the remaining DRG. The DRG are respectively suspended several times, drawn through cannulae No. 1, No. 12 and No. 16 using a syringe and transferred to a 50 ml Falcon tube which is filled up to 15 ml with complete medium. The contents of each Falcon tube are respectively filtered through a 70 μm Falcon filter element and centrifuged for 10 minutes at 1,200 rpm and RT. The resulting pellet is respectively taken up in 250 μL of complete medium and the cell count is determined.
The number of cells in the suspension is set to 3×10^5 per ml and 150 μL of this suspension are in each case introduced into a recess in the cell culture plates coated as described hereinbefore. In the incubator the plates are left for two to three days at 37° C., 5% by volume of CO2 and 95% relative humidity. […]

hVR1 [2] = target: T2, hVR1 (Homo sapiens, UniProt Q8NER1); assay: Functional test on VR1, FLIPR Ca2+ influx in transfected CHO K1 cells, capsaicin; type: cell-based, human being; parameters: key to Ki (human being) [nM] Cap: agonist / partial agonist / no effect: AG=agonist; pAG=partial agonist; NE=no effect; settings: for Ki: includes values given in brackets after pAG, read-out: Ki (human being) [nM] Cap
T2 construct: expressed in transfected cells; host or cells: CHO K1 cells (ECACC), stably transfected

hVR1 [3] = target: T2, hVR1; assay: Functional test on human VR1, NADA (N-arachidonoyl dopamine) stimulus; type: cell-based, human being; parameters: key to Ki (human being) NADA: agonist / partial agonist / no effect: AG=agonist; pAG=partial agonist; NE=no effect; settings: for Ki: includes values given in brackets after pAG, read-out: Ki (human being) [nM] NADA
From the text: II. Functional Tests Carried Out on the Vanilloid Receptor (VR1)
as §1, with “the” for “the rat-species”, “(VR1)” for “(VR1/TRPV1)”, “can also” for “can”, “the” for “the receptor”
Chinese hamster ovary cells (CHO K1 cells, European Collection of Cell Cultures (ECACC) United Kingdom) are stably transfected with the VR1 gene. For functional testing, these cells are plated out on poly-D-lysine-coated black 96-well plates having a clear base (BD Biosciences, Heidelberg, Germany) at a density of 25,000 cells/well. The cells are incubated overnight at 37° C. and 5% CO2 in a culture medium (Ham's F12 nutrient mixture, 10% by volume of FCS (foetal calf serum), 18 μg/ml of L-proline). The next day the cells are incubated with Fluo-4 (Fluo-4 2 μM, 0.01% by volume of Pluronic F127, Molecular Probes in HBSS (Hank's buffered saline solution), Gibco Invitrogen GmbH, Karlsruhe, Germany) for 30 minutes at 37° C. Subsequently, the plates are washed three times with HBSS buffer and after further incubation for 15 minutes at RT used for Ca^2+ measurement in a FLIPR assay. The Ca^2+-dependent fluorescence is measured before and after the addition of the substances to be tested (λex wavelength=488 nm, λem=540 nm). Quantification is carried out by measuring the highest fluorescence intensity (FC, fluorescence counts) over time.
The FLIPR protocol consists of 2 substance additions. First the compounds to be tested (10 μM) are pipetted onto the cells and the Ca^2+ influx is compared with the control (capsaicin 10 μM) (% activation based on the Ca^2+ signal after the addition of 10 μM of capsaicin). […]
Desensitising agonists and antagonists led to suppression of the Ca^2+ influx. The % inhibition is calculated compared to the maximum achievable inhibition with 10 μM of capsaicin.
Starting from the percentage displacement caused by different concentrations of the compounds to be tested of general formula I, IC50 inhibitory concentrations which cause a 50-per cent displacement of capsaicin were calculated. Ki values for the test substances were obtained by conversion by means of the Cheng-Prusoff equation (Cheng, Prusoff; Biochem. Pharmacol. 22, 3099-3108, 1973).
NADA=N-arachidonoyl dopamine

hVR1 [4] = target: T2, hVR1; assay: Functional test on human VR1, 45° C. stimulus; type: cell-based, human being; parameters: key to IC50 (human being), 45° C.: agonist / partial agonist / no effect: AG=agonist; pAG=partial agonist; NE=no effect; settings: for IC50: read-out: IC50 (human being) [nM], 45° C.
hVR1 [5] = target: T2, hVR1; assay: Functional test on hVR1 after pH stimulus; type: cell-based, human being; parameters: key to IC50 (human being) hVR1, pH: agonist / partial agonist / no effect: AG=agonist; pAG=partial agonist; NE=no effect; settings: for inhibition at 10 µM: read-out: IC50 (human being) hVR1, pH: inhibition (as a percentage)
[6] = read-out: IC50 (human being), 45° C.: inhibition (as a percentage)

T2 sequence (Q8NER1 whole entry): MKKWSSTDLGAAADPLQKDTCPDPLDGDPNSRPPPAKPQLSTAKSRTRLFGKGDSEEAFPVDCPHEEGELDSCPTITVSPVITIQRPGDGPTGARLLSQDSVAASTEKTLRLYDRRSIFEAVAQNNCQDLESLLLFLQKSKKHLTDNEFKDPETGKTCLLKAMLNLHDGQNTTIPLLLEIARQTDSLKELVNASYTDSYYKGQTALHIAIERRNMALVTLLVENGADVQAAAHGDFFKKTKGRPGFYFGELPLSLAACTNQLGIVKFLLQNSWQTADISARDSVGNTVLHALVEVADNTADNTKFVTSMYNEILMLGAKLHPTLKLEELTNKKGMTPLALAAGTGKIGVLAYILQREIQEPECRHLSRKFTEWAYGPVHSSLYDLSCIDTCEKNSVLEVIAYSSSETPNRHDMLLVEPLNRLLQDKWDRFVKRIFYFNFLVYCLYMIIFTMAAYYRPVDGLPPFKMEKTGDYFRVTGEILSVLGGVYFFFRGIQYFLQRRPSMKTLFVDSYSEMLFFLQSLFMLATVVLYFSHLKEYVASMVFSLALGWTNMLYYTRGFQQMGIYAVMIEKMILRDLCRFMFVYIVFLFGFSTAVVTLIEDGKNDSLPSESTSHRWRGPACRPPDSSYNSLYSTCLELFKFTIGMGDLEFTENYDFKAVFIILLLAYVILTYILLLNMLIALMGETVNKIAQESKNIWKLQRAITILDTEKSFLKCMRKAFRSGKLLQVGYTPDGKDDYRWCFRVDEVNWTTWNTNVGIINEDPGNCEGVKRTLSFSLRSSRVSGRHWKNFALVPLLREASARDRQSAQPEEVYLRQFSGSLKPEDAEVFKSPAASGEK
T1 sequence (O35433 whole entry): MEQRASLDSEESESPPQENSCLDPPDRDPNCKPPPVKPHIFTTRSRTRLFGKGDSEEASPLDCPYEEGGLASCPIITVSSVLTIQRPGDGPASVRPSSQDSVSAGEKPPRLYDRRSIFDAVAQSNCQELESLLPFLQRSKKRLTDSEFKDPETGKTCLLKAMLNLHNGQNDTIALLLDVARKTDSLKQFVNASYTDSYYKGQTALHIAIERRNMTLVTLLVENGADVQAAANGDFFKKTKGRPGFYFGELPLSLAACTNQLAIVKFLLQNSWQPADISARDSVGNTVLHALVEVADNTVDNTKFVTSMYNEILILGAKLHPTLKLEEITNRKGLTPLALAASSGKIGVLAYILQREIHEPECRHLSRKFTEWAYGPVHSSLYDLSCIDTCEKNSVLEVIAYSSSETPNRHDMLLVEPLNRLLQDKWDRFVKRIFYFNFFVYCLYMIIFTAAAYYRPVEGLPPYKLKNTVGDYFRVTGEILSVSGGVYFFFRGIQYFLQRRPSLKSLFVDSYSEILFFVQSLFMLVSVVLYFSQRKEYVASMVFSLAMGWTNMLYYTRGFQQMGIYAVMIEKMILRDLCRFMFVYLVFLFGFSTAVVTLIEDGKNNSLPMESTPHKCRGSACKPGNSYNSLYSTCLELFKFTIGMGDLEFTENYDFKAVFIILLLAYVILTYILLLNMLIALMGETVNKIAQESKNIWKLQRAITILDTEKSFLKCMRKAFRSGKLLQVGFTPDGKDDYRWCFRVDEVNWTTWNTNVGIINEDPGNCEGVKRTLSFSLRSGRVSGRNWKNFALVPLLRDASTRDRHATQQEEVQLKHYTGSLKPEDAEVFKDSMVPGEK

| SMILES | Ki [1] | Ki (hVR1 [2]; capsaicin (Cap)) | inhibition at 10 µM (hVR1 [5]) | Ki (hVR1 [3]) | Ki (human being) [nM] Cap: agonist / partial agonist / no effect (hVR1 [2]) | Ki (human being) NADA: agonist / partial agonist / no effect (hVR1 [3]) | other results |
| --- | --- | --- | --- | --- | --- | --- | --- |
| CC(C)(C)c1cc(CNC(=O)Cc2ccc3c(c2)OCCO3)n(-c2ccc(Cl)cc2)n1 [Example 12, N-((3-tert-butyl-1-(4-chlorophenyl)-1H-pyrazol-5-yl)methyl)-2-(2,3-dihydrobenzo[b][1,4]dioxin-6-yl)acetamide] | 135 nM | 77.9 nM |  |  |  |  | inhibition at 2 µM (hVR1 [3]; @ 2 μM, read-out: Ki (human being) NADA column: inhibition (as a percentage)): 58%; inhibition at 2 µM (hVR1 [4]; [6]): 18% |
| CC(C(=O)NCc1cc(C(C)(C)C)nn1-c1cccc(Cl)c1)c1cccc2ccc(O)cc12 (stereo not drawn) [Example 57, N-((3-tert-butyl-1-(3-chlorophenyl)-1H-pyrazol-5-yl)methyl)-2-(7-hydroxynaphthalen-1-yl)propanamide] | 4.2 nM | 1.6 nM | 13% | 0.1 nM |  |  | IC50 (hVR1 [4]): 25.6 nM |
| CC(C(=O)NCc1cc(C(C)(C)C)nn1-c1cccc(Cl)c1)c1ccc2ocnc2c1 (stereo not drawn) [Example 40, 2-(benzo[d]oxazol-5-yl)-N-((3-tert-butyl-1-(3-chlorophenyl)-1H-pyrazol-5-yl)methyl)propanamide] | 8.4 nM | 4.2 nM |  | 1.1 nM |  |  |  |
| CC(C)(C)c1cc(CNC(=O)Nc2cnc3ccccc3c2)n(-c2cccc(Cl)c2)n1 [Example 113, 1-((3-tert-butyl-1-(3-chlorophenyl)-1H-pyrazol-5-yl)methyl)-3-(quinolin-3-yl)urea] |  | 70.7 nM |  | 33.3 nM |  |  |  |
| CC(C(=O)NCc1cc(C(F)(F)F)nn1-c1ccc(Cl)cc1)c1cccc2cnccc12 (stereo not drawn) [Example 68, N-((1-(4-chlorophenyl)-3-(trifluoromethyl)-1H-pyrazol-5-yl)methyl)-2-(isoquinolin-5-yl)propanamide] |  | 0.3 nM | 33% | 0.04 nM |  |  | IC50 (hVR1 [4]): 245 nM |
| CC(C(=O)NCc1cc(C(C)(C)C)nn1-c1cccc(Cl)c1)c1ccc2cccnc2c1 (stereo not drawn) [Example 71, N-((3-tert-butyl-1-(3-chlorophenyl)-1H-pyrazol-5-yl)methyl)-2-(quinolin-7-yl)propanamide] |  |  |  | 68.1 nM |  |  | inhibition at 10 µM (hVR1 [2]; CHO-K1, @ 10 μM, capsaicin (Cap), read-out: Ki (human being) Cap column: inhibition (as a percentage)): 18%; IC50 (hVR1 [4]): 2710 nM |
| CC(C(=O)NCc1cc(C(C)(C)C)nn1-c1cccc(Cl)c1)c1ccc2cc(O)ccc2c1 (stereo not drawn) [Example 49, N-((3-tert-butyl-1-(3-chlorophenyl)-1H-pyrazol-5-yl)methyl)-2-(6-hydroxynaphthalen-2-yl)propanamide] |  |  |  |  | AG | AG | IC50 (human being) hVR1, pH: agonist / partial agonist / no effect (hVR1 [5]): AG; IC50 (human being), 45° C.: agonist / partial agonist / no effect (hVR1 [4]): AG |
| CC(C)(C)c1cc(CNC(=O)Nc2cncc3ccccc23)n(-c2cccc(Cl)c2)n1 [Example 112, 1-((3-tert-butyl-1-(3-chlorophenyl)-1H-pyrazol-5-yl)methyl)-3-(isoquinolin-4-yl)urea] | 18.2 nM | 7.3 nM |  | 6.4 nM |  | pAG |  |
| CC(C)(C)c1cc(CNC(=O)Nc2cccc3cnccc23)n(-c2cccc(Cl)c2)n1 [Example 109, 1-((3-tert-butyl-1-(3-chlorophenyl)-1H-pyrazol-5-yl)methyl)-3-(isoquinolin-5-yl)urea] |  | 0.2 nM |  |  | pAG | pAG | IC50 (human being) hVR1, pH: agonist / partial agonist / no effect (hVR1 [5]): pAG; IC50 (human being), 45° C.: agonist / partial agonist / no effect (hVR1 [4]): pAG |
| CC(C)(C)c1cc(CNC(=O)Nc2cccc3ncccc23)n(-c2cccc(Cl)c2)n1 [Example 111, 1-((3-tert-butyl-1-(3-chlorophenyl)-1H-pyrazol-5-yl)methyl)-3-(quinolin-5-yl)urea] |  |  |  |  | AG | AG | IC50 (human being) hVR1, pH: agonist / partial agonist / no effect (hVR1 [5]): AG; IC50 (human being), 45° C.: agonist / partial agonist / no effect (hVR1 [4]): AG |
| CC(C(=O)NCc1cc(C(C)(C)C)nn1-c1cccc(Cl)c1)c1cccc2cnccc12 (stereo not drawn) [Example 63, N-((3-tert-butyl-1-(3-chlorophenyl)-1H-pyrazol-5-yl)methyl)-2-(isoquinolin-5-yl)propanamide] | 0.5 nM | 0.2 nM | 33% |  |  |  | Ki (rat) [nM] Cap: agonist / partial agonist / no effect [1]: pAG; inhibition at 0.6 µM (hVR1 [4]; @ 0.6 μM, read-out: IC50 (human being), 45° C.: inhibition (as a percentage)): 9% |
| CC(C(=O)NCc1cc(C(C)(C)C)nn1-c1cccc(Cl)c1)c1ccc2c(c1)CCN2S(C)(=O)=O (stereo not drawn) [Example 10, N-((3-tert-butyl-1-(3-chlorophenyl)-1H-pyrazol-5-yl)methyl)-2-(1-(methylsulphonyl)indolin-5-yl)propanamide] |  | 75.4 nM | 42% |  | pAG | pAG | inhibition at 2 µM (hVR1 [4]; [6]): 6% |
